Earlier results on one compound are cited in patent US6441041B1, “(-)-hydroxycitric acid for the prevention of osteoporosis” (priority 2001, dated 2002).

The subject of series [1] is female Zucker obese (Fa/fa) rats. Particulars: obese animals.
Series [2] relates to female Zucker lean (Fa/−) rats. As to conditions: lean animals.

`O=C([O-])CC(O)(C(=O)[O-])C(O)C(=O)[O-].[Na+].[Na+].[Na+]` (stereo not drawn) [Tri-NaHCA, trisodium (−)-hydroxycitrate]: the “Carcass protein and ash/mineral content in comparison with control” value in series [1] was “increased carcass protein and ash/mineral content”; in series [2], “increased carcass protein and ash/mineral content”.
